Measurements from paper PMC6164588 (International Journal of Environmental Research and Public …, 2018).
Like-named read-outs stand apart in the source and are kept apart here.

What was measured:
[1] = test system: Salmonella typhimurium TA97 strain; test: Ames assay (Salmonella typhimurium/reverse mutation assay), TA97 strain
Text: (§1) TA97, TA98, TA100, and TA102 were used as standard test strains. The strains were provided by Jiangsu Provincial Center for Disease Control and Prevention and Guizhou Medical University. TA97 and TA98 strains primarily detect the genotoxic substances of frameshift mutants, while TA100 and TA102 strains detect DNA as a mutagenic substance for base pair substitution. TA102 strain has a different specificity from the other Salmonella strains routinely used in mutagenicity screening. It detects a variety of oxidative mutagens and seems to be more sensitive to some aldehydes and some DNA damaging compounds, which are negative with other Salmonella strains.
(§2) According to the standard Ames bacterial mutagenicity assay and Safety and Technical Standards for Cosmetics, the experiments were performed by the plate incorporation method with or without liver microsomal metabolic activation (S9) mixture. For the pure materials, the highest dose group was generally 5 mg/plate or 5 μL/plate. After the bacterial inhibition experiment, five dose groups (0.05, 0.5, 5, 50, 500 μg/plate) were determined for testing the chemicals. Three parallel plates were prepared for each dose. The chemicals (test chemicals or positive control drugs), the S9 system (with or without), and the S. typhimurium strains (TA97, TA98, TA100, TA102) were added to the nutrient mediums. The negative control (blank and solvent) groups and the positive control groups were also done with three parallel plates.
(§3) The chemicals and concentrations were as follows: In the absence of the S9 system: Dexon 50 μg/plate for the TA97, TA98, and TA102 strains, and NaN3 1.5 μg/plate for the TA100 strain.
(§4) Five concentrations for each chemical were tested for mutagenicity in the standard plate pre-incubation assay. The reported numbers of reverse mutation colonies per plate are mean values from triplicates obtained in one experiment. The experiment was repeated at two times.
(§5) All the plates for the experiments were incubated under the same conditions: 37 ± 0.5 °C, 48 h, dark.
(§6) The test series was set as 100%, 50%, 10%, 5%, and 0.5%. […] Then, 100 μL of the mixtures, which were at different doses, was added to each plate.
(§7) The mutagenicity ratio (MR) is calculated as MR = x/x0(1) where x is the number of reverse mutation colonies on compound-treated plates and x0 is the number of reverse mutation colonies in the negative control group.
(§8) When the mutagenicity ratio (MR) is ≥2 and the dose–response relationship and the background are normal, the mutagenesis is judged as positive.

[2] = test system: Salmonella typhimurium TA98 strain; test: Ames assay (Salmonella typhimurium/reverse mutation assay), TA98 strain
Text: as §1, §2, §3, §4, §5, §6, §7, §8

[3] = test system: Salmonella typhimurium TA100 strain; conditions: for Mutation effect, TA100 strain: absence of S9
Text: as §1, §2, §3, §4, §5, §6, §7, §8

[4] = test system: Salmonella typhimurium TA102 strain; test: Ames assay (Salmonella typhimurium/reverse mutation assay), TA102 strain
Text: as §1, §2, §3, §4, §5, §6, §7, §8

[5] = test system: S. typhimurium TA97 strain; test: Bacterial inhibition experiment, TA97 strain
Procedure: (§9) Bacterial inhibition experiment is necessary according to the standard Ames bacterial mutagenicity assay. Safety and Technical Standards for Cosmetics require that the maximum chemical dose should be 5 mg/plate. […] The maximum concentration of both were 50 mg/mL, then diluted to 25 mg/mL, 10 mg/mL, 5 mg/mL, and 0.5 mg/mL. Plates were poured with LB medium, and 0.1 mL of the above solution and 0.1 mL of bacterial solution per dish were added.
(§10) The criteria for determining the highest dose of the test substance are its toxicity to the bacteria and its solubility. A decrease in spontaneous reversion variables, a decrease in background bacteria, or a decrease in the number of bacteria in the culture being treated are signs of toxicity.
(§11) For this, bacterial growth inhibition tests were designed and carried out.

[6] = test system: S. typhimurium TA98 strain; test: Bacterial inhibition experiment, TA98 strain
Procedure: as §9, §10, §11

[7] = test system: S. typhimurium TA100 strain; test: Bacterial inhibition experiment, TA100 strain
Procedure: as §9, §10, §11

[8] = test system: S. typhimurium TA102 strain; test: Bacterial inhibition experiment, TA102 strain
Procedure: as §9, §10, §11

[9] = test system: TA98 strain; conditions: concentrations of 300 μg/plate and 500 μg/plate; cited from earlier work
[10] = test system: TA100 strain; conditions: concentrations of 300 μg/plate and 500 μg/plate; cited from earlier work
[11] = dose 50 μg/plate, −S9, positive control

O=C(c1ccccc1)c1ccc(O)cc1O [BP-1, benzophenone-1]
Mutagenic activities, TA97 strain ([1]; +S9 system, doses from 0.05 μg/plate to 500 μg/plate): no mutagenic activities were detected
Mutagenicity, TA97 strain ([1]; absence of S9, doses of 0.05 and 0.5 μg/plate): significant mutagenicity
Reverse mutation colonies TA97 +S9 ([1]; dose 0.05 μg/plate): 151 ± 8 colonies per plate
Mutagenicity ratio (MR) flag TA97 −S9 ([1]; dose 0.05 μg/plate): * (MR ≥ 2 compared to control)
Reverse mutation colonies TA97 −S9 ([1]; dose 0.05 μg/plate): 925 ± 13 colonies per plate
Reverse mutation colonies TA97 +S9 ([1]; dose 0.5 μg/plate): 143 ± 10 colonies per plate
Mutagenicity ratio (MR) flag TA97 −S9 ([1]; dose 0.5 μg/plate): * (MR ≥ 2 compared to control)
Reverse mutation colonies TA97 −S9 ([1]; dose 0.5 μg/plate): 697 ± 56 colonies per plate
Reverse mutation colonies TA97 +S9 ([1]; dose 5 μg/plate): 146 ± 10 colonies per plate
Reverse mutation colonies TA97 −S9 ([1]; dose 5 μg/plate): 185 ± 10 colonies per plate
Reverse mutation colonies TA97 +S9 ([1]; dose 50 μg/plate): 149 ± 11 colonies per plate
Reverse mutation colonies TA97 −S9 ([1]; dose 50 μg/plate): 83 ± 6 colonies per plate
Reverse mutation colonies TA97 +S9 ([1]; dose 500 μg/plate): 88 ± 20 colonies per plate
Reverse mutation colonies TA97 −S9 ([1]; dose 500 μg/plate): 6 ± 1 colonies per plate
Reverse mutation colonies TA98 +S9 ([2]; dose 0.05 μg/plate): 51 ± 7 colonies per plate
Reverse mutation colonies TA98 −S9 ([2]; dose 0.05 μg/plate, −S9): 43 ± 13 colonies per plate
Reverse mutation colonies TA98 +S9 ([2]; dose 0.5 μg/plate): 48 ± 2 colonies per plate
Reverse mutation colonies TA98 −S9 ([2]; dose 0.5 μg/plate, −S9): 46 ± 8 colonies per plate
Reverse mutation colonies TA98 +S9 ([2]; dose 5 μg/plate): 52 ± 7 colonies per plate
Reverse mutation colonies TA98 −S9 ([2]; dose 5 μg/plate, −S9): 33 ± 3 colonies per plate
Reverse mutation colonies TA98 +S9 ([2]; dose 50 μg/plate): 36 ± 1 colonies per plate
Reverse mutation colonies TA98 −S9 ([2]; dose 50 μg/plate, −S9): 22 ± 9 colonies per plate
Reverse mutation colonies TA98 +S9 ([2]; dose 500 μg/plate): 23 ± 2 colonies per plate
Reverse mutation colonies TA98 −S9 ([2]; dose 500 μg/plate, −S9): 0 ± 1 colonies per plate
Mutagenicity result, TA98 strain ([2]; systems both with and without S9): not mutagenic
Mutation effect, TA100 strain ([3]; dose 0.5 μg/plate): significant mutation effect
Mutation effect, TA100 strain ([3]; doses of 5, 50, and 500 μg/plate): no obvious mutations
Reverse mutation colonies TA100 +S9 ([3]; dose 0.05 μg/plate): 174 ± 13 colonies per plate
Reverse mutation colonies TA100 −S9 ([3]; dose 0.05 μg/plate, −S9): 239 ± 17 colonies per plate
Reverse mutation colonies TA100 +S9 ([3]; dose 0.5 μg/plate): 193 ± 12 colonies per plate
Mutagenicity ratio (MR) flag TA100 −S9 ([3]; dose 0.5 μg/plate, −S9): * (MR ≥ 2 compared to control)
Reverse mutation colonies TA100 −S9 ([3]; dose 0.5 μg/plate, −S9): 458 ± 29 colonies per plate
Reverse mutation colonies TA100 +S9 ([3]; dose 5 μg/plate): 191 ± 8 colonies per plate
Reverse mutation colonies TA100 −S9 ([3]; dose 5 μg/plate, −S9): 153 ± 2 colonies per plate
Reverse mutation colonies TA100 +S9 ([3]; dose 50 μg/plate): 196 ± 4 colonies per plate
Reverse mutation colonies TA100 −S9 ([3]; dose 50 μg/plate, −S9): 188 ± 15 colonies per plate
Reverse mutation colonies TA100 +S9 ([3]; dose 500 μg/plate): 122 ± 4 colonies per plate
Reverse mutation colonies TA100 −S9 ([3]; dose 500 μg/plate, −S9): 181 ± 10 colonies per plate
Reverse mutation colonies TA102 +S9 ([4]; dose 0.05 μg/plate, +S9): 350 ± 11 colonies per plate
Reverse mutation colonies TA102 −S9 ([4]; dose 0.05 μg/plate, −S9): 311 ± 12 colonies per plate
Reverse mutation colonies TA102 +S9 ([4]; dose 0.5 μg/plate, +S9): 369 ± 10 colonies per plate
Reverse mutation colonies TA102 −S9 ([4]; dose 0.5 μg/plate, −S9): 369 ± 18 colonies per plate
Reverse mutation colonies TA102 +S9 ([4]; dose 5 μg/plate, +S9): 443 ± 8 colonies per plate
Reverse mutation colonies TA102 −S9 ([4]; dose 5 μg/plate, −S9): 355 ± 20 colonies per plate
Reverse mutation colonies TA102 +S9 ([4]; dose 50 μg/plate, +S9): 429 ± 8 colonies per plate
Reverse mutation colonies TA102 −S9 ([4]; dose 50 μg/plate, −S9): 407 ± 16 colonies per plate
Reverse mutation colonies TA102 +S9 ([4]; dose 500 μg/plate, +S9): 390 ± 10 colonies per plate
Reverse mutation colonies TA102 −S9 ([4]; dose 500 μg/plate, −S9): 7 ± 4 colonies per plate
Mutagenicity, TA102 strain ([4]; presence or absence of S9): not mutagenic
Bacterial inhibition t-Test Result TA97 ([5]; dose 50 μg/plate): −
Bacterial inhibition t-Test Result TA97 ([5]; dose 500 μg/plate): + (t-test (p < 0.05))
Bacterial inhibition t-Test Result TA97 ([5]; dose 1000 μg/plate): + (t-test (p < 0.05))
Bacterial inhibition t-Test Result TA97 ([5]; dose 2500 μg/plate): ++ (t-test (p < 0.01))
Bacterial inhibition t-Test Result TA97 ([5]; dose 5000 μg/plate): ++ (t-test (p < 0.01))
Bacterial inhibition t-Test Result TA98 ([6]; dose 50 μg/plate): −
Bacterial inhibition t-Test Result TA98 ([6]; dose 500 μg/plate): + (t-test (p < 0.05))
Bacterial inhibition t-Test Result TA98 ([6]; dose 1000 μg/plate): + (t-test (p < 0.05))
Bacterial inhibition t-Test Result TA98 ([6]; dose 2500 μg/plate): ++ (t-test (p < 0.01))
Bacterial inhibition t-Test Result TA98 ([6]; dose 5000 μg/plate): ++ (t-test (p < 0.01))
Bacterial inhibition t-Test Result TA100 ([7]; dose 50 μg/plate): −
Bacterial inhibition t-Test Result TA100 ([7]; dose 1000 μg/plate): + (t-test (p < 0.05))
Bacterial inhibition t-Test Result TA100 ([7]; dose 2500 μg/plate): ++ (t-test (p < 0.01))
Bacterial inhibition t-Test Result TA100 ([7]; dose 5000 μg/plate): ++ (t-test (p < 0.01))
Bacterial inhibition t-Test Result TA102 ([8]; dose 50 μg/plate): −
Bacterial inhibition t-Test Result TA102 ([8]; dose 500 μg/plate): + (t-test (p < 0.05))
Bacterial inhibition t-Test Result TA102 ([8]; dose 1000 μg/plate): + (t-test (p < 0.05))
Bacterial inhibition t-Test Result TA102 ([8]; dose 2500 μg/plate): ++ (t-test (p < 0.01))
Bacterial inhibition t-Test Result TA102 ([8]; dose 5000 μg/plate): ++ (t-test (p < 0.01))
Mutagenicity, TA98 strain [9]: None of the compounds produced clear positive mutagenicity results
Mutagenicity, TA100 strain [10]: None of the compounds produced clear positive mutagenicity results

O=C1c2cccc(O)c2C(=O)c2c(O)cccc21 [Dantron, reference compound]
Reverse mutation colonies TA102 +S9 ([4]; dose 50 μg/plate, +S9): 625 ± 71 colonies per plate
Mutagenicity ratio (MR) flag TA102 +S9 ([4]; dose 50 μg/plate, +S9, positive control): * (MR ≥ 2 compared to control)

CN(C)c1ccc(N=NS(=O)(=O)[O-])cc1.[Na+] [Dexon, reference compound]
Reverse mutation colonies TA97 −S9 ([1]; dose 50 μg/plate): 1987 ± 203 colonies per plate
Mutagenicity ratio (MR) flag TA97 −S9 ([1]; dose 50 μg/plate, positive control): * (MR ≥ 2 compared to control)
Reverse mutation colonies TA98 −S9 ([2]; dose 50 μg/plate, −S9): 1065 ± 137 colonies per plate
Mutagenicity ratio (MR) flag TA98 −S9 [2, 11]: * (MR ≥ 2 compared to control)
Reverse mutation colonies TA102 −S9 ([4]; dose 50 μg/plate, −S9): 586 ± 83 colonies per plate
Mutagenicity ratio (MR) flag TA102 −S9 [4, 11]: * (MR ≥ 2 compared to control)
